Earlier results, collected in article PMC8000448, “Inhibitory Effects of Schisandra Lignans on Cytochrome P450s and Uridine 5′-Diphospho-Glucuronosyl Transferases in Human Liver Microsomes” (Pharmaceutics, 2021).
Where two headings read alike, the source gives them in different places.

Columns and labels:
CYP3A [1] = test system: CYP3A; parameters: method as in PMID 15342469; conditions: read-out: IC50, CYP3A-mediated testosterone hydroxylase activity; cited from earlier work
CYP1A2 = test system: CYP1A2; parameters: method as in PMID 15342469; conditions: cited from earlier work
CYP2C9 = test system: CYP2C9; parameters: method as in PMID 15342469; conditions: cited from earlier work
CYP2C19 = test system: CYP2C19; parameters: method as in PMID 15342469; conditions: cited from earlier work
CYP2D6 = test system: CYP2D6; parameters: method as in PMID 15342469; conditions: cited from earlier work
recombinant CYP3A4 [2] = conditions: recombinant CYP3A4 isoform; read-out: IC50, CYP3A-mediated midazolam 1′-hydroxylation; cited from earlier work
recombinant CYP3A4 [3] = conditions: rCYP3A4, fluorescent substrate; cited from earlier work
CYP3A [4] = conditions: read-out: Ki, CYP3A-mediated testosterone hydroxylation; cited from earlier work
recombinant CYP2C19 = test system: recombinant CYP2C19; parameters: method as in PMID 24855828; conditions: read-out: IC50, CYP2C19-catalyzed omeprazole hydroxylation; cited from earlier work
CYP3A [5] = conditions: rats; cited from earlier work

Compound | IC50 (CYP3A [1]) | IC50 (CYP1A2) | IC50 (CYP2C9) | IC50 (CYP2C19) | IC50 (CYP2D6) | IC50 (recombinant CYP3A4 [2]) | IC50 (recombinant CYP3A4 [3]) | Ki (CYP3A [4]) | IC50 (recombinant CYP2C19) | Plasma concentrations of midazolam (CYP3A [5])
gomisin B | 0.26 to 0.62 µM | > 10 µM | > 10 µM | > 10 µM | > 10 µM | – | – | – | – | –
gomisin A | – | > 10 µM | > 10 µM | > 10 µM | > 10 µM | 1.86 µM | 1.39 µM | 1.01 µM | – | –
COc1cc2c(c(OC)c1OC)-c1c(cc3c(c1OC)OCO3)[C@H](OC(=O)c1ccccc1)[C@@](C)(O)[C@@H](C)C2 [gomisin G, reference compound] | – | – | – | – | – | 0.19 µM | – | – | – | –
COc1cc2c(c(OC)c1OC)-c1c(cc(OC)c(OC)c1OC)C[C@H](C)[C@H](C)C2 [schisandrin A, reference compound] | – | – | – | – | – | – | – | – | 86.4 µM | markedly increases
